Residues, ends and D or L forms follow the SMILES beside them.
Tests used:
[1] = the molecule shown is the open-chain precursor; 33-membered ring; resin; 60 steps
[2] = Circular dichroism, α-helicity; type: physicochemical; conditions: CD, TFE/water (1:1), 50 μM peptide, 25 °C, 1 mm cuvette, calculated from [θ]222
Procedure: The linear and stapled peptides were dissolved in the trifluoroethanol (TFE) and water (1 : 1) to a final concentration of 50 μM, respectively. The CD spectra were obtained with 1 mm quartz cuvette on Jasco-815 spectropolarimeter at 25 °C. The measurement parameters were set up as follows: wavelength, 185–260 nm; step resolution, 0.5 nm; speed, 20 nm min^−1. All spectra were converted to a uniform scale of molar ellipticity after background subtraction. The curves were smoothed using standard parameters. The ellipticity in the acquired CD spectra was converted to the molar ellipticity using the equation: [θ] = θ/(10 × c × l), where, [θ] is the Molar ellipticity (deg cm^2. d mol^−1), θ is the observed ellipticity corrected for the buffer at a given wavelength (m deg), c is the molar concentration and l is the path length (cm). The helicity of each peptide was calculated as described in a literature based on the ellipticity of the peptide's spectrum at 222 nm and the number of amino acids in the peptide sequence.
Circular dichroism (CD) spectroscopy was used to investigate the secondary structures of the stapled and template peptides to probe structural changes induced by conformation constraint in a membrane-like milieu, including […] (TFE) and water (1 : 1). […] (Table 1, ESI ^†).

[3] = test system: human normal liver cell LO-2; experiment: MTT toxicity against normal cells, LO-2; type: cell-based; conditions: 96 h
Procedure: (§1) Anti-tumor activity was evaluated by the standard MTT assay with a slight modification measuring the median inhibitory concentration (IC50) values.[35] HCT-116 cells, HepG2 cells and A549 cells were plated in triplicate wells into a 96-well plate at 5 × 10^3/well and cultured routinely for 24 h. Cells were incubated with increasing concentrations of hymenochirin-1B and its analogs (0.1–30 μM) and continued to culture with DMEM plus 10% FBS at 37 °C and 5% CO2. After being incubated for 96 h, the absorbance A value was determined by MTT at 540 nm. The untreated HCT-116 cells, HepG2 cells and A549 cells were used as control. Each experiment was performed in duplicate. The inhibitory rate was calculated according to the following formula: inhibitory rate = (a value of the control group − a value of the study group)/a value of the control group × 100%.
(§2) To further research the selectivity of these peptides towards cancer cells over normal cells. The growth-inhibitory activities of peptides were evaluated using the 3-(4,5-dimethylthiazol-2-yl)-2,5-diphenyltetrazolium bromide (MTT) assay against three normal cells,[35] namely, human normal liver cell LO-2, human normal Lung cell BEAS-2 and human normal kidney cell 293 T (Table S2 ^†). The experiments procedure was performed just same as growth inhibition of the peptides against tumor cells. […] It might be due to the higher averaged hydrophobicity produced by six or nine additional methylene and two olefinic carbons to the peptide to increase toxicity to human normal cells. This situation may be resolved through the addition of polar character and glycosylation into the sequence to decrease the averaged hydrophobicity to improve the selectivity of these peptides towards cancer cells over normal cells. These modifications of these peptides are under way, and the present study was focused on the improved anti-tumor activity of template peptide hymenochirin-1B.

[4] = test system: human normal Lung cell BEAS-2; experiment: MTT toxicity against normal cells, BEAS-2B; type: cell-based; conditions: 96 h
Procedure: as §1, §2

[5] = test system: human normal kidney cell 293 T; experiment: MTT toxicity against normal cells, 293T; type: cell-based; conditions: 96 h
Procedure: as §1, §2

[6] = Protease resistance (trypsin degradation, HPLC); type: in vitro ADME; conditions: trypsin solution (5 ng/µL); trypsin 5 ng/μL in 50 mM PBS with 2 mM CaCl2, pH 7.4 (method: trypsin buffer pH 8), peptide 0.1 mM final, room temperature, sampled 0–3.5 h, HCl quench, HPLC 214 nm, duplicate; read-out: half-life (t1/2) toward trypsin degradation (converted)
Procedure: The peptides were dissolved in PBS buffer solutions (50 mM, pH = 7.4) to a final concentration of 1 mM, respectively. Trypsin was dissolved in PBS buffer (50 mM, containing 2 mM of CaCl2, pH = 8) to a final concentration of 5 ng μL^−1. Then the peptide solutions (100 μL) were incubated with trypsin solution (1 mL) at room temperature. 100 μL of digestion mixture was taken at the 0, 0.5, 1.0, 1.5, 2.0, 2.5, 3.0, and 3.5 h marks, then quenched with 20 μL of hydrochloric acid (1 M). The solution of the trypsin peptide fragments was monitored by HPLC at different time to determine the fraction of protease degradation at 214 nm. Each experiment was performed in duplicate.
To assess the protease stability of the stapled peptides, we measured their susceptibility toward trypsin degradation at room temperature in PBS buffer (pH 7.4) with monitored by HPLC. Trypsin is a protease that predominantly cleaves at the carboxyl terminus of positive charge amino acids, such as arginine and lysine. […] Especially, only about 49% of bicyclic stapled peptide H-10 was cleaved after 3.5 h (Fig. 3 and S4 ^†).
Fig. 3 Proteolytic stability of peptides incubated in trypsin solution (5 ng μL^−1 in 50 mM PBS buffer, pH = 7.4) at a final concentration of 0.1 mM. […] The percent of residual peptide was monitored by Analytic HPLC. All experiments were repeated at least three times. H-0 represents hymenochirin-1B.

Helicity (%) [2]	half-life at 0.1 mM [6]	Structure (SMILES)	ring closure, overall yield [1]	IC50 (μM) LO-2, toxicity against normal cells [3]	IC50 (μM) BEAS-2B, toxicity against normal cells [4]	IC50 (μM) 293T, toxicity against normal cells [5]
–	–	C=CCCCCCC[C@@](C)(NC(=O)[C@H](CCCCNC(=O)OC(C)(C)C)NC(=O)[C@H](CC(C)C)NC(=O)[C@@H](NC(=O)[C@H](CCCCNC(=O)OC(C)(C)C)NC(=O)[C@H](CCCCNC(=O)OC(C)(C)C)NC(=O)[C@H](CC(C)C)NC(=O)[C@H](CC(=O)NC(c1ccccc1)(c1ccccc1)c1ccccc1)NC(=O)[C@H](CC(=O)OC(C)(C)C)NC(=O)[C@H](CCCCNC(=O)OC(C)(C)C)NC(=O)[C@@H](NC(=O)[C@H](CCC(=O)OC(C)(C)C)NC(=O)[C@@H]1CCCN1C(=O)[C@H](COC(C)(C)C)NC(=O)[C@H](CC(C)C)NC(=O)[C@H](CCCCNC(=O)OC(C)(C)C)NC(=O)[C@@H](NC(=O)OCC1c2ccccc2-c2ccccc21)[C@@H](C)CC)[C@@H](C)OC(C)(C)C)C(C)C)C(=O)N[C@@H](C)C(=O)N[C@H](C(=O)N[C@@H](CCCCNC(=O)OC(C)(C)C)C(=O)NCC(=O)N[C@@H](C)C(=O)N[C@H](C(=O)N[C@@](C)(CCCC=C)C(=O)N[C@H](C(=O)N[C@@H](C)C(=O)N[C@@H](CCCCNC(=O)OC(C)(C)C)C(=O)N[C@@H](CCSC)C(=O)N[C@H](C(N)=O)C(C)C)C(C)C)[C@@H](C)CC)[C@@H](C)CC	6.72%	–	–	–
48.7%	16.8 min	CC[C@H](C)[C@H](N)C(=O)N[C@@H](CCCCN)C(=O)N[C@@H](CC(C)C)C(=O)N[C@@H](CO)C(=O)N1CCC[C@H]1C(=O)N[C@@H](CCC(=O)O)C(=O)N[C@H](C(=O)N[C@@H](CCCCN)C(=O)N[C@@H](CC(=O)O)C(=O)N[C@@H](CC(N)=O)C(=O)N[C@@H](CC(C)C)C(=O)N[C@@H](CCCCN)C(=O)N[C@@H](CCCCN)C(=O)N[C@H](C(=O)N[C@@H](CC(C)C)C(=O)N[C@@H](CCCCN)C(=O)NCC(=O)N[C@@H](C)C(=O)N[C@H](C(=O)N[C@@H](CCCCN)C(=O)NCC(=O)N[C@@H](C)C(=O)N[C@H](C(=O)N[C@@H](C)C(=O)N[C@H](C(=O)N[C@@H](C)C(=O)N[C@@H](CCCCN)C(=O)N[C@@H](CCSC)C(=O)N[C@H](C(N)=O)C(C)C)C(C)C)[C@@H](C)CC)[C@@H](C)CC)C(C)C)[C@@H](C)O [Hymenochirin-1B] (H-IKLSPETKDNLKKVLKGAIKGAIAVAKMV-NH2)	–	23.98 ± 0.32 µM	9.24 ± 0.25 µM	11.12 ± 0.35 µM

From publication PMC9081086, “Stapling strategy enables improvement of antitumor activity and proteolytic stability of host-defense peptide hymenochirin-1B” (RSC Advances, 2018)
